Results: ChEMBL document CHEMBL1201862, “PubChem BioAssay data set” (2004)
Activity calls are given as the source filed them.

What was measured:
[1] = Luminescent dose response cell-based high throughput screening assay for inhibitors of the Janus kinase 2 mutant JAK2V617F. [Related pubchem assays: 1446 (Primary screen.), 1521 (Confirmation assay.), 1486 (Counter screen.)]; assay type: functional
[2] = biological target: T1, Sphingosine 1-phosphate receptor 4 (Homo sapiens, UniProt O95977); experiment: Late stage fluorescence dose response cell-based screening assay for antagonists of the Sphingosine 1-Phosphate Receptor 4 (S1P4). [Related pubchem assays: 1524 (Confirmation screen (S1P4 antagonists).), 1510 (Primary screen (S1P4 antagonists).), 1853 (Summary AID (S1P4 antagonists).), 1692 (Dose response screen (S1P4 antagonists).)]; assay type: functional
[3] = biological target: T1, Sphingosine 1-phosphate receptor 4; experiment: Fluorescence dose response cell-based high throughput screening assay for antagonists of the Sphingosine 1-Phosphate Receptor 4 (S1P4). [Related pubchem assays: 1524 (Confirmation in triplicates.), 1510 (Primary screen.)]; assay type: functional
[4] = biological target: Sphingosine 1-phosphate receptor 1 (Homo sapiens, UniProt P21453); assay type: functional;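 also: Tango beta-arrestin reporter U2OS cells stimulated with S1P near its EC80; inhibitor potency meaning antagonism of receptor activation by the natural agonist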
[5] = biological target: T2, Replicative DNA helicase DnaB (Mycobacterium tuberculosis, UniProt P9WMR3); experiment: DnaB intein splicing inhibitors, dose response, biochemical, cell-free fluorescence (AID 449749); assay type: functional
T2 sequence (P9WMR3 whole entry): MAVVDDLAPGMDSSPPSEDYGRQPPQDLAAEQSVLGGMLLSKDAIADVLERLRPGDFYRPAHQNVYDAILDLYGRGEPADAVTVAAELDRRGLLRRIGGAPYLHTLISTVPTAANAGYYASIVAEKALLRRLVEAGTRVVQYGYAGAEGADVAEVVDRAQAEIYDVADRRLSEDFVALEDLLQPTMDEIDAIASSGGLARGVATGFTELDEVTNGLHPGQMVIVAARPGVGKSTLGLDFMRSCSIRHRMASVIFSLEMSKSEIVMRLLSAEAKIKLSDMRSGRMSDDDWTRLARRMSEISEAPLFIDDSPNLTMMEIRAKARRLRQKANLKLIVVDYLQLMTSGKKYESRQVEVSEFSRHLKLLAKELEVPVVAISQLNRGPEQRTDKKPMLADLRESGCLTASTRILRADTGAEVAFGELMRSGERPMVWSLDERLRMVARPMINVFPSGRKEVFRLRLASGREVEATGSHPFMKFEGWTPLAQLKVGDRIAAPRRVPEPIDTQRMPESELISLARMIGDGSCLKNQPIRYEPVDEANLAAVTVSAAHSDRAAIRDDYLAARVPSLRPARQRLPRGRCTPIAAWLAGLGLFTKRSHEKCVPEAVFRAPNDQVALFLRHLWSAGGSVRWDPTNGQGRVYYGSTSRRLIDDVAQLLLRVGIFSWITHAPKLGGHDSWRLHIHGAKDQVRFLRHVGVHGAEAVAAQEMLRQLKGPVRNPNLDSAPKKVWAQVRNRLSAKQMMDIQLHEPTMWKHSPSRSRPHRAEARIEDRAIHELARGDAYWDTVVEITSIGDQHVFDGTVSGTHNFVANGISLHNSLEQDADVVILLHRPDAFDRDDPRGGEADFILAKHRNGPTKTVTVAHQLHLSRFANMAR

Protein RecA = biological target: T3, Protein RecA (Mycobacterium tuberculosis, UniProt P9WHJ3); experiment: Fluorescence Cell-Free Homogeneous Dose Retest to Identify Inhibitors of RecA-Intein Splicing Activity. [Related pubchem assays (depositor defined):AID2097, AID2223, AID489010, AID492950]; assay type: functional
T3 sequence (P9WHJ3 whole entry): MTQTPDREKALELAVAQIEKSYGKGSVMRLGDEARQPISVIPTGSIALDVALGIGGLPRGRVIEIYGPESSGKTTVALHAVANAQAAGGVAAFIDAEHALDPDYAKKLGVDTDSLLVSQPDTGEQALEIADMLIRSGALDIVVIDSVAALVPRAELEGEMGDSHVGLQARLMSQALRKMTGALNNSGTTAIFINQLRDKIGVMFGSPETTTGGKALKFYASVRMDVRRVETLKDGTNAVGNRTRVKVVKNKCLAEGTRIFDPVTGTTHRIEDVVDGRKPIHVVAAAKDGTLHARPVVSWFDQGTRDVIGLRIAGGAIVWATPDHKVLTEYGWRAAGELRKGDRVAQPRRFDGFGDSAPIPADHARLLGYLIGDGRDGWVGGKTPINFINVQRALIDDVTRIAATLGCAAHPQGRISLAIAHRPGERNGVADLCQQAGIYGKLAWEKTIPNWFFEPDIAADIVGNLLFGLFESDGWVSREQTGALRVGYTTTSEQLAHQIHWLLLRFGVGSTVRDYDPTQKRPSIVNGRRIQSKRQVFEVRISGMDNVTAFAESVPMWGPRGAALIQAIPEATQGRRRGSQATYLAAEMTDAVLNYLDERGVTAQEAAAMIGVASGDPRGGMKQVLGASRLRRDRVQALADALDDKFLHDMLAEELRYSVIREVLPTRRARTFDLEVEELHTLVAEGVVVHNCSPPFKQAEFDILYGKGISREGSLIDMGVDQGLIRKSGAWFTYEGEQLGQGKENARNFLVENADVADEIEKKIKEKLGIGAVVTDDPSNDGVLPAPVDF

[6] = biological target: Beta-2 adrenergic receptor (Homo sapiens, UniProt P07550); experiment: beta2AR agonists driving receptor internalization, dose response, cell-based, FAP fluorogen, flow cytometry, cherry pick 1 (AID 588763); assay type: functional
Fatty acid synthase [7] = biological target: T4, Fatty acid synthase (Homo sapiens, UniProt P49327); experiment: FAS thioesterase domain inhibitors, dose response, biochemical, endpoint fluorescence intensity, uHTS hits (AID 624327); assay type: functional;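 also: fluorescence from hydrolysis of an O-methyl fluorescein acyl ester substrate by the enzyme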
Fatty acid synthase [8] = biological target: T4, Fatty acid synthase; experiment: FAS thioesterase domain inhibitors, dose response, biochemical, kinetic fluorescence intensity (AID 624326); assay type: functional;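 also: rate of fluorescence rise from hydrolysis of a fluorogenic O-methyl fluorescein ester substrate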
[9] = biological target: G-protein coupled receptor 55 (Homo sapiens, UniProt Q9Y2T6); experiment: GPR55 agonists via beta-arrestin recruitment, primary screen, imaging, U2OS cells, beta-arrestin-GFP redistribution (AID 1961); assay type: functional
Hexokinase HKDC1 = biological target: T5, Hexokinase HKDC1 (Homo sapiens, UniProt Q2TB90); experiment: HKDC1 hexokinase inhibitors, dose response, biochemical, W721R variant (AID 504729); assay type: functional
T5 sequence (Q2TB90 whole entry): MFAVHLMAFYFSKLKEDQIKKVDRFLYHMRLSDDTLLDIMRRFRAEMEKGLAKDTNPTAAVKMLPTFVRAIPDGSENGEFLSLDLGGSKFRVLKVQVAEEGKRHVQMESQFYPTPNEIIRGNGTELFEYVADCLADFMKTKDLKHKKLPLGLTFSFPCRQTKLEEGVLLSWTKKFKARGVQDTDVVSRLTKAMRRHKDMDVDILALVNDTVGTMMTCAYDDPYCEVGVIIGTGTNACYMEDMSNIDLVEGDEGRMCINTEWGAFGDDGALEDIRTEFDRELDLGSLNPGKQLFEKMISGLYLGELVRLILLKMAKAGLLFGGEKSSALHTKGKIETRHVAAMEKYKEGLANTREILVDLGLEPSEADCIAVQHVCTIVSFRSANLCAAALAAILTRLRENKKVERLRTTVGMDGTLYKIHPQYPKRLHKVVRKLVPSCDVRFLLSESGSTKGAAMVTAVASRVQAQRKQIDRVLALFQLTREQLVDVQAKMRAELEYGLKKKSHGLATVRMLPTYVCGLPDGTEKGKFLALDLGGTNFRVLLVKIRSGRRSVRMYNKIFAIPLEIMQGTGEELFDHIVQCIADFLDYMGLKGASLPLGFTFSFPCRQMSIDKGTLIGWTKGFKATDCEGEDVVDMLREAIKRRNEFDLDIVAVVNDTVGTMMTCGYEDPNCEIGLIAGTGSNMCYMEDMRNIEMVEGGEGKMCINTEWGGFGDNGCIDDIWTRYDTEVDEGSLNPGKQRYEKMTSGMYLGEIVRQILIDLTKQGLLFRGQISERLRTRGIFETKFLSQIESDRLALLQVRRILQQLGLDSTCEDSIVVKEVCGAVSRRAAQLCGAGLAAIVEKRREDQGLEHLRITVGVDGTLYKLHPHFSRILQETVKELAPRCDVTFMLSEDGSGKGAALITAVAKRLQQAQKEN

[10] = biological target: Heat shock protein HSP 90-alpha (Homo sapiens, UniProt P07900); assay type: functional, organism-based
Vero = Vero cell cytotoxicity, cytotoxicity control for flavivirus capping enzyme inhibitors (AID 588742); assay type: functional; conditions: Chlorocebus sabaeus
[11] = biological target: DNA (cytosine-5)-methyltransferase 1 (Homo sapiens, UniProt P26358); experiment: DNMT1 methyltransferase inhibitors, confirmation, biochemical, fluorescent molecular beacon (AID 602386); assay type: functional
[12] = NIH-3T3 fibroblast cytotoxicity, dose response, cytotoxicity control, cell-based, fluorescence, Alamar Blue, secondary assay (AID 2327); assay type: functional;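 also: NIH-3T3 mouse fibroblasts cultured with fluconazole at 8 µg/mL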
BJ [13] = experiment: cytotoxicity toward BJ-TERT fibroblasts, dose response, cell-based, RAS-independent, luminescence (AID 1933); assay type: functional; conditions: Homo sapiens
cells [14] = assay type: functional, cell-based
BJ [15] = experiment: cells; assay type: functional, cell-based; conditions: Homo sapiens
[16] = C. albicans growth with fluconazole, confirmation, fluorescence, retest (AID 2467); assay type: functional, cell-based
[17] = Luminescence-based dose response cell-based high throughput screening assay for cytotoxic compounds using the IEC-6 intestinal epithelial cell line. [Related pubchem assays: 1858 (Summary AID.), 1825 (Counterscreen.), 1907 (Confirmation screen.)]; assay type: functional
cells [18] = assay type: functional, cell-based; remark: listed apart in the source
[19] = biological target: Serine/threonine-protein phosphatase (Candida dubliniensis (strain CD36 / CBS 7987 / NCPF 3949 / NRRLY-17841) (Yeast), UniProt B9W6M3); experiment: calcineurin pathway inhibitors in yeast reporter, dose response, S. cerevisiae, CDRE-lacZ, luminescence, secondary (AID 2388); assay type: functional, cell-based;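 also: yeast reporter cells carrying a calcineurin-responsive lacZ construct stimulated with calcium chloride; luminescent beta-galactosidase reporter signal in whole cells rather than isolated phosphatase activity; potency for inhibition where a drop in reporter signal means calcineurin blockade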
BJ [20] = experiment: cytotoxicity toward BJ-TERT-LT-ST fibroblasts, dose response, cell-based, RAS-independent, luminescence (AID 1935); assay type: functional; conditions: Homo sapiens;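 also: BJ fibroblasts immortalized with TERT plus LT and ST oncogenes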
[21] = cytotoxicity toward DRD oncogenic fibroblasts, dose response, cell-based, non-viral oncogenic, luminescence (AID 1934); assay type: functional; conditions: Homo sapiens
[22] = cytotoxicity in HEK-293T cells, dose response, cytotoxicity control for TCR NF-kB inhibitor project, luminescence, T-cell screen hits (AID 489026); assay type: functional, cell-based;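 also: cells exposed to compound about 14 hours before the viability readout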
HEK293 [23] = experiment: inhibitors of LMP1-driven NF-kB reporter, dose response, cell-based, HEK293, luciferase, cherry-pick (AID 588343); assay type: functional; conditions: Homo sapiens
HEK293 [24] = experiment: cytotoxicity in HEK293T NF-kB-Luc cells, SAR follow-up, cytotoxicity control for NF-kB activator project, cell-based, resazurin fluorescence (AID 493251); assay type: functional; conditions: Homo sapiens
Jurkat = experiment: SAR Analysis of small molecule inhibitors of T-cell specific antigen receptor-induced NF-kB activation in a Jurkat cell line using a luminescence assay - Set 2. [Related pubchem assays (depositor defined):AID435003, AID435012, AID465]; assay type: functional, cell-based; conditions: Homo sapiens
HEK293 [25] = experiment: SAR Analysis of small molecule inhibitors of T-cell specific antigen receptor-induced NF-kB activation in a HEK-293T cell line using a luminescence assay - Set 2. [Related pubchem assays (depositor defined):AID435003, AID435012, AID489026]; assay type: functional, cell-based; conditions: Homo sapiens
INS1 = experiment: beta cell apoptosis inhibitors, cytokine rescue, dose response, luminescence, retest (AID 449756); assay type: functional, cell-based; conditions: Rattus norvegicus;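 also: cell death triggered by IL-1 beta plus TNF-alpha plus IFN-gamma mixture; protective hits raise ATP signal compared with cytokine alone wells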
[26] = biological target: ATP-dependent molecular chaperone HSP82 (Candida albicans (strain WO-1) (Yeast), UniProt C4YTQ8); experiment: loss of DOC-induced GRE-beta-galactosidase reporter signal, dose response, Hsp90 inhibitor project, S. cerevisiae, luminescence (AID 2400); assay type: functional, cell-based;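 also: beta-galactosidase luminescence from glucocorticoid response element reporter as proxy for Hsp90 function; inhibitor potency where signal loss means Hsp90 inhibition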
[27] = Shn3 3'UTR reporter inhibitors, dose response, cell-based, Clone20 osteoblasts, firefly luciferase, cherry-picked (AID 624132); assay type: functional;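 also: firefly luciferase luminescence from reporter carrying the Shn3 3'UTR in osteoblasts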
[28] = HepG2 cell cytotoxicity, dose response, cytotoxicity control for Shn3 inhibitor project, CellTiter-Glo, cherry-picked (AID 624134); assay type: functional, cell-based
[29] = control 3'UTR Renilla luciferase suppression, dose response, counter-screen for Shn3 inhibitor project, cell-based, Clone20-Shn3RL, cherry-picked (AID 624133); assay type: functional

T4 sequence (P49327 whole entry, the tested form may be a part): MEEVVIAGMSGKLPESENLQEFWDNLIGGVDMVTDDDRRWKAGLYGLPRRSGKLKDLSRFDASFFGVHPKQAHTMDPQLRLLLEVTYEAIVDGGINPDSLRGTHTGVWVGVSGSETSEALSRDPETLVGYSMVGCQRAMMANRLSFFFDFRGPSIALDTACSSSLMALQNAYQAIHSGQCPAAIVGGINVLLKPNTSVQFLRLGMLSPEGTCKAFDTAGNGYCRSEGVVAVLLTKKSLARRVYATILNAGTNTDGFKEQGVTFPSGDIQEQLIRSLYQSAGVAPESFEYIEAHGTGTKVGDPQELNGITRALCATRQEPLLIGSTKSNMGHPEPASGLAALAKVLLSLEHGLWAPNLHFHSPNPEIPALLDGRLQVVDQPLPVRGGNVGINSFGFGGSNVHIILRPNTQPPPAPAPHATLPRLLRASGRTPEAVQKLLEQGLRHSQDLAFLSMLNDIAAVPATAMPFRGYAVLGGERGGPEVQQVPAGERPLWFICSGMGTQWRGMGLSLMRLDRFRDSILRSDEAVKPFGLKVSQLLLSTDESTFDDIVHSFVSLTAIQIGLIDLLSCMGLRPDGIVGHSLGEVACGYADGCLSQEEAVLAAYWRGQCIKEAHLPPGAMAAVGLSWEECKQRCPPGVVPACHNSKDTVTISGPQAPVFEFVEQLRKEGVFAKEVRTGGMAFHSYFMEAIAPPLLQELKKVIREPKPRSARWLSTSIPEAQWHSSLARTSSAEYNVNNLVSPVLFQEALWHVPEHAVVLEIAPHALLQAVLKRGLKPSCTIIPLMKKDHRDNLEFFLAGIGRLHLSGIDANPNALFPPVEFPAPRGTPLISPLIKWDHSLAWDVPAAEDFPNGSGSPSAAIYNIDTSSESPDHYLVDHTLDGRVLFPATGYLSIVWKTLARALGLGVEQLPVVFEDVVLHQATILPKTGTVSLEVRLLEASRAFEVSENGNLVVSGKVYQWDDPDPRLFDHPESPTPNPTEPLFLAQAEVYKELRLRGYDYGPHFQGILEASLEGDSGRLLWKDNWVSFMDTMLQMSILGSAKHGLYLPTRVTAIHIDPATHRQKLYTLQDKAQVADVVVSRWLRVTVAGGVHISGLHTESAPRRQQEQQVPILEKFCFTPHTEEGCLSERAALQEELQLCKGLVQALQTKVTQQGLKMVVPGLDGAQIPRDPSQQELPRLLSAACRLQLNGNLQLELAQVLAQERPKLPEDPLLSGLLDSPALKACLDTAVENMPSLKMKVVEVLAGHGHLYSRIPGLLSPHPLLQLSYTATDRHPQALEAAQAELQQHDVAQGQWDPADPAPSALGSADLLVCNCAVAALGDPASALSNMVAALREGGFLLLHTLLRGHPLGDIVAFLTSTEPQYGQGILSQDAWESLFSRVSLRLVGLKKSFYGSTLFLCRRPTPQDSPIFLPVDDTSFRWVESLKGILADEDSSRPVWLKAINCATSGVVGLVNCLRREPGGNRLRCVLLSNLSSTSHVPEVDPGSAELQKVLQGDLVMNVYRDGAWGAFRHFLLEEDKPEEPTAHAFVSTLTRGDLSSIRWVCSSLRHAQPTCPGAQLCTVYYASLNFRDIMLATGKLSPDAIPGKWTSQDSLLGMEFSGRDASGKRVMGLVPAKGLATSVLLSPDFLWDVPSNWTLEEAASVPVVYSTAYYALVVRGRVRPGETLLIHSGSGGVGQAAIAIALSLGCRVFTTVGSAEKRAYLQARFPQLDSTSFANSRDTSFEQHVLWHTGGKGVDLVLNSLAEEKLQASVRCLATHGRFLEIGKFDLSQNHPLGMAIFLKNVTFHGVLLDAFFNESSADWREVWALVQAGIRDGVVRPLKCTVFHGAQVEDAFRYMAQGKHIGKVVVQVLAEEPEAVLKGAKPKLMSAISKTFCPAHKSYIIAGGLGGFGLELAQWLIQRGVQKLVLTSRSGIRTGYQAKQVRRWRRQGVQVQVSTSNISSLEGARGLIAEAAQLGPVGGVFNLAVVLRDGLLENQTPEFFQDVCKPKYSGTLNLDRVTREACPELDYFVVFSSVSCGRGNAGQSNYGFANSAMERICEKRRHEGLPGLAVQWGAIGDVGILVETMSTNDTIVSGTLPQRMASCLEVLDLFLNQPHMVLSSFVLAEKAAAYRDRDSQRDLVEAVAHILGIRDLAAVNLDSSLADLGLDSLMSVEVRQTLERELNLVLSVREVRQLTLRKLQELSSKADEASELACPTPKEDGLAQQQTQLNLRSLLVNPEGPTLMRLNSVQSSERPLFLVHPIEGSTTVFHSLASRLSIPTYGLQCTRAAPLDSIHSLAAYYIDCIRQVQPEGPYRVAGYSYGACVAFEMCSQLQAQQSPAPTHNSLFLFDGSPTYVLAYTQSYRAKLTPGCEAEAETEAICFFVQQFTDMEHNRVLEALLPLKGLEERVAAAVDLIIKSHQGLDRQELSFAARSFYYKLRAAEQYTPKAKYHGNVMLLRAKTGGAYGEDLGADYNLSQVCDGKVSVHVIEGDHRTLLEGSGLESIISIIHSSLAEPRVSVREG
T1 sequence (O95977 whole entry): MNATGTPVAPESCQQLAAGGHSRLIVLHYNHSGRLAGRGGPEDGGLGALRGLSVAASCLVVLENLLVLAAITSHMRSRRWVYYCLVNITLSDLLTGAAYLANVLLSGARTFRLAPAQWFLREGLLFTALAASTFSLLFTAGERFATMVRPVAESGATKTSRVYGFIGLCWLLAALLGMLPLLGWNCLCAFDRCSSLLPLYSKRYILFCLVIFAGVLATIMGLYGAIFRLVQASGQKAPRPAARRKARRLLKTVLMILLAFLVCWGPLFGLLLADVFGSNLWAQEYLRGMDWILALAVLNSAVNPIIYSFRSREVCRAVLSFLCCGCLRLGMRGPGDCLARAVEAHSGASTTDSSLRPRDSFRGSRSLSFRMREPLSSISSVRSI
Sequence of G-protein coupled receptor 55 (Q9Y2T6 whole entry): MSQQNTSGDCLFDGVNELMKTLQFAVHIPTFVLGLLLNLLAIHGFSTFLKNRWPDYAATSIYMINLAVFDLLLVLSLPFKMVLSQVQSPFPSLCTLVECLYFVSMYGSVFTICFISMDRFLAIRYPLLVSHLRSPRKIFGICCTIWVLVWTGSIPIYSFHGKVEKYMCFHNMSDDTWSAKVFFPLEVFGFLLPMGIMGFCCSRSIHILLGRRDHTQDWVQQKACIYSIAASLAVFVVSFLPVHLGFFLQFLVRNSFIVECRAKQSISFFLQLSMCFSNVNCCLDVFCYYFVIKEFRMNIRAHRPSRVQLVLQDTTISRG
Sequence of Beta-2 adrenergic receptor (P07550 whole entry, the tested form may be a part): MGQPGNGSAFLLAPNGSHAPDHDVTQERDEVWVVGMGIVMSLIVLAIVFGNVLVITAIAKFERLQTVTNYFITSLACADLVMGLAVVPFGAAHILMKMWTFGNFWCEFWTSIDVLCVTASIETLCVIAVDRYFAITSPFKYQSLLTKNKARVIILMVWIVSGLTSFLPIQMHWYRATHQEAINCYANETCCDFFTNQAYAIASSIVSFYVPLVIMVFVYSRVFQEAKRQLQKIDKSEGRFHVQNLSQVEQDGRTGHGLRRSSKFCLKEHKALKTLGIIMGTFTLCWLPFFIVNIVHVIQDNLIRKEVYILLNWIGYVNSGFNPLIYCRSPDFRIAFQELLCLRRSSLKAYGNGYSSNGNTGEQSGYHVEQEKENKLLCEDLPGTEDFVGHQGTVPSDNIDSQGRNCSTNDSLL
Sequence of Sphingosine 1-phosphate receptor 1 (P21453 whole entry): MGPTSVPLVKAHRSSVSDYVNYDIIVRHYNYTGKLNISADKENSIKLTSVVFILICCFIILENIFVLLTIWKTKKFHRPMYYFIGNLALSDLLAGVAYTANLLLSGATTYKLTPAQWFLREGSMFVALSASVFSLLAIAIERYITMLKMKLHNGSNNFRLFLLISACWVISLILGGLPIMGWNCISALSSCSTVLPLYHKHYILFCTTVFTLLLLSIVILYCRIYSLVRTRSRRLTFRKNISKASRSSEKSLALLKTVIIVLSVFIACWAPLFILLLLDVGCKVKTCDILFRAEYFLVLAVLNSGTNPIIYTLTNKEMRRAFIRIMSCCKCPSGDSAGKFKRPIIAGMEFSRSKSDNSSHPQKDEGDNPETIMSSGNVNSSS
Sequence of ATP-dependent molecular chaperone HSP82 (C4YTQ8 whole entry): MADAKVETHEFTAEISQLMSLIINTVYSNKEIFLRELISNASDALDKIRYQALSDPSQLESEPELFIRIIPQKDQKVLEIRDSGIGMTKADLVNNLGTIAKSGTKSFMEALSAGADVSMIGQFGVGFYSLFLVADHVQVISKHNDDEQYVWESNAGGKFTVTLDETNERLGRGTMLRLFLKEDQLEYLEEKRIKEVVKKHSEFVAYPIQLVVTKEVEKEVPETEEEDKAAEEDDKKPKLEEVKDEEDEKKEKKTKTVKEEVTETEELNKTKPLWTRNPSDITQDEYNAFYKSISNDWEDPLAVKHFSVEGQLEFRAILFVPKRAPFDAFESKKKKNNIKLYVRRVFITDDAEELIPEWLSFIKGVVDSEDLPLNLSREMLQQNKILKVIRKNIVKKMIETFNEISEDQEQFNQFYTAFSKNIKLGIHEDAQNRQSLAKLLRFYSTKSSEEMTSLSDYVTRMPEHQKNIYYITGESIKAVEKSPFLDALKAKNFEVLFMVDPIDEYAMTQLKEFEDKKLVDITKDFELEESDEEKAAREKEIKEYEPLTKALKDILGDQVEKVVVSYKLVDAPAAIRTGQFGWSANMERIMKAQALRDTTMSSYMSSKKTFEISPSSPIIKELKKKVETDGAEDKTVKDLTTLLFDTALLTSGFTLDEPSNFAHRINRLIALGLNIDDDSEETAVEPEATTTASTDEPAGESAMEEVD

CCCC(=O)N(C1CC(C)C(C#N)(C#N)C1(C#N)C#N)N(C)C (stereo not given)
IC50 [1]: 0.562 µM (active)
IC50 [2]: 9.68 µM (not active)
IC50 [3]: 2.42 µM (active)
IC50 [4]: > 49.8 µM (not active)
AC50 [5]: 1.61 µM (active)
EC50 (Protein RecA): 1.34 µM (active)
EC50 [6]: 35 µM (inactive)
IC50 (Fatty acid synthase [7]): 8.18 µM (active)
IC50 (Fatty acid synthase [8]): 8.51 µM (active)

CCOC(=O)c1c(-n2c(C)cc(C=C3C(=O)NC(=S)NC3=O)c2C)sc2c1CCCC2
EC50 [9]: > 32 µM (inactive)
IC50 (Hexokinase HKDC1): 23.1 µM (inactive)
AC50 [10]: 2.61 µM (active)
CC50 (Vero): 11.9 µM (active)
IC50 [11]: 10 µM (active)

CCCC(=O)NC(c1ccccc1Cl)c1ccc2cccnc2c1O (stereo not given)
EC50 [12]: 14.6 µM (active)
EC50 (BJ [13]): 1.12 µM (active)
EC50 (cells [14]): 6.59 µM (active)
EC50 (BJ [15]): 7.5 µM (active)
EC50 [16]: 0.656 µM (active)
IC50 [17]: 1.44 µM (active)
EC50 (cells [18]): > 350 µM (not active)
EC50 [19]: > 180 µM (inactive)
EC50 (BJ [20]): 2.49 µM (active)
EC50 [21]: 1.86 µM (inconclusive)
IC50 [22]: > 80 µM (inactive)
AC50 (HEK293 [23]): 5.2 µM (active)
AC50 [10]: 4.09 µM (active)
IC50 (HEK293 [24]): 9.95 µM (active)
IC50 (Jurkat): 4.29 µM (active)
IC50 (HEK293 [25]): 7.04 µM (active)
AC50 (INS1): 0.63 µM (active)
EC50 [26]: > 150 µM (inactive)
AC50 [27]: 1.21 µM (active)
AC50 [28]: 2.66 µM (active)
AC50 [29]: 1.27 µM (active)
